# Active and inactive are the calls of the source. No cut-off for these calls is given here.
# Tests used:
# Cell membrane = test: Induction of mitochondrial membrane potential loss in human MDA-MB-231 cells assessed as increase in fluorescence intensity at 40 uM incubated for 48 hrs by TMRM dye based flow cytometry analysis (reference value: 97.5%)
# [1] = Hepatotoxicity in nude mouse at 10 mg/kg, ip measured for 3 days; assay type: toxicity, organism-based; conditions: in vivo, 72 h, time 3 day
# MDA-MB-231 [2] = test: Antitumor activity against human MDA-MB-231 cells xenografted in nude mouse assessed as decrease in Ki67 expression at 10 mg/kg, ip measured for 3 days by immunohistochemistry analysis; assay type: functional, organism-based; conditions: time 3.0 day
# MDA-MB-231 [3] = test: Antiproliferative activity against human MDA-MB-231 cells assessed as reduction in viability at 10 uM incubated for 7.5 hrs by MTT assay; assay type: functional
# HUVEC [4] = test: Antiangiogenesis activity in HUVEC cells at 0.03 to 0.3 uM incubated for 12 hrs by microscopic analysis; assay type: functional, cell-based; conditions: Homo sapiens, dose 0.03-0.3 µM
# MDA-MB-231 [5] = test: Induction of apoptosis in human MDA-MB-231 cells assessed as apoptotic cells at 40 uM incubated for 12 hrs by Annexin V-FITC/PI staining based analysis; assay type: functional
# HT-29 = test: Antiproliferative activity against human HT-29 cells assessed as reduction in cell viability measured for 48 hrs by MTT assay; assay type: functional, cell-based; conditions: HT-29, 48 h
# HUVEC [6] = test: Antiangiogenesis activity in HUVEC cells at 62.5 nM incubated for 12 hrs by microscopic analysis; assay type: functional, cell-based; conditions: Homo sapiens
# PC-3 = test: Antiproliferative activity against human PC-3 cells assessed as reduction in cell viability measured for 48 hrs by MTT assay; assay type: functional, cell-based; conditions: PC-3, 48 h
# [7] = biological target: Dual specificity tyrosine-phosphorylation-regulated kinase 1A (Homo sapiens, UniProt Q13627); test: Inhibition of DYRK1A (unknown origin)
# [8] = Inhibition of PI3K/AKT/mTOR signaling pathway in human MDA-MB-231 cells assessed as decrease in mTOR expression at 1 to 4 uM incubated for 6 hrs by Western blot analysis; assay type: cell-based; conditions: dose 1-4 µM
# [9] = Toxicity in nude mouse xenografted with human MDA-MB-231 cells assessed as change in body weight at 10 to 20 mg/kg, ip measured for 3 days; assay type: organism-based; conditions: in vivo, 72 h, dose 10-20 mg/kg, time 3 day
# MDA-MB-231 [10] = test: Induction of apoptosis in human MDA-MB-231 cells assessed as apoptotic cells at 4 uM incubated for 12 hrs by Annexin V-FITC/PI staining based analysis; assay type: functional
# MDA-MB-231 [11] = test: Antitumor activity against human MDA-MB-231 cells xenografted in nude mouse assessed as decrease in CD31 expression at 10 mg/kg, ip measured for 3 days by immunohistochemistry analysis; assay type: functional, organism-based; conditions: time 3.0 day
# [12] = Antiproliferative activity against human HUVEC cells assessed as reduction in cell viability measured for 48 hrs by MTT assay; assay type: toxicity, cell-based
# MDA-MB-468 = test: Antiproliferative activity against human MDA-MB-468 cells assessed as reduction in cell viability measured for 48 hrs by MTT assay; assay type: functional, cell-based; conditions: MDA-MB-468, 48 h
# MDA-MB-231 [13] = test: Inhibition of cell migration human MDA-MB-231 cells at 0.01 to 0.4 uM incubated for 24 hrs by DAPI staining based analysis; assay type: functional; conditions: dose 0.01-0.4 µM
# MDA-MB-231 [14] = test: Induction of ROS generation in human MDA-MB-231 cells assessed as increase in intracellular ROS level at 40 uM incubated for 48 hrs by DCFH-DA staining based fluorescence microscopic analysis (Rvb=79.6%); assay type: functional
# MGC-803 = test: Antiproliferative activity against human MGC-803 cells assessed as reduction in cell viability measured for 48 hrs by MTT assay; assay type: functional, cell-based; conditions: MGC-803, 48 h
# [15] = biological target: Dual specificity protein kinase CLK1 (Homo sapiens, UniProt P49759); test: Inhibition of CLK1 (unknown origin)
# Sequence of Dual specificity protein kinase CLK1 (P49759 whole entry, canonical isoform): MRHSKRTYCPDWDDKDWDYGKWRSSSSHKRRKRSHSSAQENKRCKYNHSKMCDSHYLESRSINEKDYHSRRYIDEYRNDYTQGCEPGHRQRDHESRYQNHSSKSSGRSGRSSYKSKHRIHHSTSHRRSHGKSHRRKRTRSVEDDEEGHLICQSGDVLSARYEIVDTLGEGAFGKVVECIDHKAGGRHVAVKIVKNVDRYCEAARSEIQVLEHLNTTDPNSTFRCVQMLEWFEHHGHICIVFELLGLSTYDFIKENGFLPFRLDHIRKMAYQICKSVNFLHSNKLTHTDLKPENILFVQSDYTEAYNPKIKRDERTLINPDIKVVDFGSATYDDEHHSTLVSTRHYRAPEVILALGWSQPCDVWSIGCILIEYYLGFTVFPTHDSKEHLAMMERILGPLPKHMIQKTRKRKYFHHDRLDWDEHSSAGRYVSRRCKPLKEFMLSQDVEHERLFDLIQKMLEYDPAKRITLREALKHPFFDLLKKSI
# [16] = biological target: Casein kinase I isoform epsilon (Homo sapiens, UniProt P49674); test: Inhibition of CK1epsilon (unknown origin)
# Sequence of Casein kinase I isoform epsilon (P49674 whole entry, canonical isoform): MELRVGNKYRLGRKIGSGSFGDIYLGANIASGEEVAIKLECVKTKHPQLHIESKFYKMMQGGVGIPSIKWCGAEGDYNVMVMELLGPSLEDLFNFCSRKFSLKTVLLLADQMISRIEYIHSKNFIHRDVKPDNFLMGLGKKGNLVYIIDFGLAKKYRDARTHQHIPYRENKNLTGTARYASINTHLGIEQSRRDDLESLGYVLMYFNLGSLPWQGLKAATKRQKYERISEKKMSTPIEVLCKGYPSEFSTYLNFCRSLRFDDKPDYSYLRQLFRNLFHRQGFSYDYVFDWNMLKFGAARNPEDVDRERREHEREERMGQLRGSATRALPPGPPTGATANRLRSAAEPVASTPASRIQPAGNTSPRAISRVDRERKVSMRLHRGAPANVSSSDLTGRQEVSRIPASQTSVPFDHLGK
# [17] = Inhibition of PI3K/AKT/mTOR signaling pathway in human MDA-MB-231 cells assessed as decrease in mTOR phosphorylation at 1 to 4 uM incubated for 6 hrs by Western blot analysis; assay type: cell-based; conditions: dose 1-4 µM
# MDA-MB-231 [18] = test: Antiproliferative activity against human MDA-MB-231 cells assessed as reduction in cell viability measured for 48 hrs by MTT assay; assay type: functional, cell-based; conditions: MDA-MB-231, 48 h
# MDA-MB-231 [19] = test: Inhibition of cell migration human MDA-MB-231 cells assessed as migration distance at 25 uM incubated for 48 hrs by wound healing assay (reference value: 642.72 micrometer); assay type: functional
# [20] = Inhibition of PI3K/AKT/mTOR signaling pathway in human MDA-MB-231 cells assessed as increase in p38 phosphorylation at 2 to 4 uM incubated for 6 hrs by Western blot analysis; assay type: cell-based; conditions: dose 2-4 µM
# HepG2 = test: Antiproliferative activity against human HepG2 cells assessed as reduction in cell viability measured for 48 hrs by MTT assay; assay type: functional, cell-based; conditions: HepG2, 48 h
# MDA-MB-231 [21] = test: Antitumor activity against human MDA-MB-231 cells xenografted in nude mouse assessed as inhibition of proliferation of tumor cells at 10 mg/kg, ip measured for 3 days by H and E staining based analysis; assay type: functional, organism-based; conditions: time 3.0 day
# K562 = test: Antiproliferative activity against human K562 cells assessed as reduction in cell viability measured for 48 hrs by MTT assay; assay type: functional, cell-based; conditions: K562, 48 h
# [22] = Inhibition of PI3K/AKT/mTOR signaling pathway in human MDA-MB-231 cells assessed as decrease in AKT expression at 1 to 4 uM incubated for 6 hrs by Western blot analysis; assay type: cell-based; conditions: dose 1-4 µM
# [23] = Inhibition of PI3K/AKT/mTOR signaling pathway in human MDA-MB-231 cells assessed as decrease in EGFR expression at 1 to 4 uM incubated for 6 hrs by Western blot analysis; assay type: cell-based; conditions: dose 1-4 µM
# HCT-116 = test: Antiproliferative activity against human HCT-116 cells assessed as reduction in cell viability measured for 48 hrs by MTT assay; assay type: functional, cell-based; conditions: HCT-116, 48 h
# MDA-MB-231 [24] = test: Induction of apoptosis in human MDA-MB-231 cells assessed as apoptotic cells at 40 uM incubated for 48 hrs by Annexin V-FITC/PI staining based analysis; assay type: functional
# MCF7 = test: Antiproliferative activity against human MCF7 cells assessed as reduction in cell viability measured for 48 hrs by MTT assay; assay type: functional, cell-based; conditions: MCF7, 48 h
# [25] = biological target: Cyclin-dependent kinase 7 (Homo sapiens, UniProt P50613); test: Inhibition of CDK7 (unknown origin)
# Sequence of Cyclin-dependent kinase 7 (P50613 whole entry): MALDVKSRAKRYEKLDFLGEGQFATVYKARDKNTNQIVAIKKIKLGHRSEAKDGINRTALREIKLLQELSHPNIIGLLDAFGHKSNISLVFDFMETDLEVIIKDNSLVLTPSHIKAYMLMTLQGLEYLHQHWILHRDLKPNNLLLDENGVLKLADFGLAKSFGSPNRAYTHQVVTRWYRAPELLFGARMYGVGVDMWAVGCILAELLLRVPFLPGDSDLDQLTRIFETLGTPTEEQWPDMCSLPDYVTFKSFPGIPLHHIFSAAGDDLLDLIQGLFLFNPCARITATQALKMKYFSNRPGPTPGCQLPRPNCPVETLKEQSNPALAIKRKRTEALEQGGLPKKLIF
# MDA-MB-231 [26] = test: Antitumor activity against human MDA-MB-231 cells xenografted in nude mouse assessed as reduction in tumor growth at 10 to 20 mg/kg, ip measured for 3 days; assay type: functional, organism-based; conditions: dose 10-20 mg/kg, time 3.0 day
# MDA-MB-231 [27] = test: Antitumor activity against human MDA-MB-231 cells xenografted in nude mouse assessed as inhibition of lung metastasis in tumor at 10 mg/kg, ip measured for 3 days; assay type: functional, organism-based; conditions: time 3.0 day
# MDA-MB-231 [28] = test: Antiproliferative activity against human MDA-MB-231 cells assessed as reduction in viability at 4 uM incubated for 7.5 hrs by MTT assay; assay type: functional
compound,measurement,setting,value
OCCN1CCC(C2CCN(c3nc(NCc4ccc(F)c(Cl)c4)c4ncn(CC5CC5)c4n3)CC2)CC1,Activity,Cell membrane,24.5%
same,Activity,[1],Non-Toxic
same,Activity,MDA-MB-231 [2],Active
same,Activity,MDA-MB-231 [3],~100%
same,Activity,HUVEC [4],Active
same,Activity,MDA-MB-231 [5],>95%
same,IC50,HT-29,4.16 µM
same,Activity,HUVEC [6],Active
same,IC50,PC-3,2.43 µM
same,IC50,[7],3.89 µM
same,inhibition,[8],Active
same,Activity,[9],Non-Toxic
same,Activity,MDA-MB-231 [10],83.5%
same,Activity,MDA-MB-231 [11],Active
same,IC50 at 48 h,[12],4.26 µM
same,IC50,MDA-MB-468,2.82 µM
same,inhibition,MDA-MB-231 [13],Active
same,Activity,MDA-MB-231 [14],80.7%
same,IC50,MGC-803,3.89 µM
same,IC50,[15],2.97 µM
same,IC50,[16],0.296 µM
same,inhibition,[17],Active
same,IC50,MDA-MB-231 [18],3.15 µM
same,Activity,MDA-MB-231 [19],23.48 um
same,inhibition,[20],Active
same,IC50,HepG2,1.68 µM
same,Activity,MDA-MB-231 [21],Active
same,IC50,K562,0.32 µM
same,inhibition,[22],Active
same,inhibition,[23],Active
same,IC50,HCT-116,0.34 µM
same,Activity,MDA-MB-231 [24],>95%
same,IC50,MCF7,0.43 µM
same,IC50,[25],2.32 µM
same,Activity,MDA-MB-231 [26],Active
same,Activity,MDA-MB-231 [27],Active
same,Activity,MDA-MB-231 [28],~100%

# Reference: ChEMBL document CHEMBL5634109, “Synthesis and mechanism of action of new purine derivatives against triple negative breast cancer” (Eur J Med Chem, 2023)
